Experimental findings from BindingDB's records for PubMed 17827 (1977) are described below.

Several values for one entry are separate records, joined by “and”; a condition that tells them apart may be missing. Identical values can stand only once. Bounds are passed on as bounds.

This assay has as its target T1, Alpha-1A adrenergic receptor (Rattus norvegicus, UniProt P43140).
T1 sequence (P43140 whole entry): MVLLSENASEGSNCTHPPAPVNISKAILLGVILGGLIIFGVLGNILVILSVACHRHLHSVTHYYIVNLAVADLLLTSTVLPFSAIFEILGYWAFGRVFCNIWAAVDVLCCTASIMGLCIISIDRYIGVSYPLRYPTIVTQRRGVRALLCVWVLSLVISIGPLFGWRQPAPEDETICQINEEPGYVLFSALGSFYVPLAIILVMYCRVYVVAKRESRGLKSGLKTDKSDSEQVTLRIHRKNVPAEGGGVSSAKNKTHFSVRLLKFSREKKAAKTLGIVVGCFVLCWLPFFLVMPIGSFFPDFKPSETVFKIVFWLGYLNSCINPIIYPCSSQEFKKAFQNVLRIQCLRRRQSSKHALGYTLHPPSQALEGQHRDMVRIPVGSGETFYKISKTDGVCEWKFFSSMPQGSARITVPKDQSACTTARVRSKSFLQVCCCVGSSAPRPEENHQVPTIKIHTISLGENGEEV
For orientation: Ki means the dissociation constant of the complex between target and ligand, obtained from inhibition or displacement. A high value points to weaker binding. `NCCc1ccc(O)cc1`: the Ki is 5900 nM and 23000 nM.

On to `CC(C)NC[C@@H](O)c1ccc(O)c(O)c1`, for which the Ki was 38000 nM and > 70000 nM.

On to `CN(C)CCC=C1c2ccccc2CCc2ccccc21`, for which the Ki stood at 530 nM.

`CC[C@@H](CO)NC(=O)[C@@H]1C=C2c3cccc4c3c(cn4C)C[C@H]2N(C)C1`: the Ki is 4700 nM and 1900 nM.

For `CN1C2CCC1CC(OC(c1ccccc1)c1ccccc1)C2` (stereo unspecified), the inhibitory constant (Ki) is 420 nM and 47 nM.

Take `NCC(O)c1ccc(O)cc1` (racemic) [Octopamine,(+/-)]: the inhibitory constant (Ki) is 1560 nM and 11000 nM.

Consider `CNC(=S)NCCCCc1cnc[nH]1` [1-[4-(1H-imidazol-5-yl)butyl]-3-methylthiourea], for which the inhibition constant (Ki) was 1030 nM and 1900 nM.

Turning to `CN1CC(C(=O)N[C@]2(C)O[C@@]3(O)C4CCCN4C(=O)[C@H](Cc4ccccc4)N3C2=O)CC2c3cccc4[nH]cc(c34)CC21` (stereo partly drawn) [7-Methyl-4,6,6a,7,8,9,10,10a-octahydro-indolo[4,3-fg]quinoline-9-carboxylic acid ((2R,5S,10bS)-5-benzyl-10b-hydroxy-2-methyl-3,6-dioxo-octahydro-oxazolo[3,2-a]pyrrolo[2,1-c]pyrazin-2-yl)-amide], the inhibition constant Ki was 2.4 nM and 3.5 nM.

`CN1C[C@H](C(=O)N[C@]2(C)O[C@@]3(O)[C@@H]4CCCN4C(=O)[C@H](Cc4ccccc4)N3C2=O)C=C2c3cccc4[nH]cc(c34)C[C@H]21` [12'-hydroxy-2'-methyl-5'alpha-(phenylmethyl)ergotaman-3',6',18-trione]: the Ki was 12 nM.

For the compound `N[C@H]1C[C@@H]1c1ccccc1` [(1S,2R)-(+)-2-phenylcyclopropylamine], the inhibitory constant (Ki) is 940 nM and 7000 nM.

`CCN(CC)C(=O)[C@@H]1C=C2c3cccc4[nH]cc(c34)C[C@H]2N(C)C1` [(4R,7R)-N,N-diethyl-6-methyl-6,11-diazatetracyclo[7.6.1.0^{2,7}.0^{12,16}]hexadeca-1(16),2,9,12,14-pentaene-4-carboxamide]: the Ki worked out at 220 nM.

As for `CC(C)C[C@H]1C(=O)N2CCCC2[C@]2(O)O[C@](NC(=O)[C@@H]3C=C4c5cccc6[nH]cc(c56)CC4N(C)C3)(C(C)C)C(=O)N12` (stereo partly drawn) [ALPHA-ERGOCRYPTINE], the Ki is 8 nM and 9 nM.

As to `CN1CCc2cccc3c2[C@H]1Cc1ccc(O)c(O)c1-3` [APOKYN], the inhibition constant Ki is 950 nM and 2300 nM.

On to `CC(C)C[C@H]1C(=O)N2CCC[C@H]2[C@]2(O)O[C@](NC(=O)[C@@H]3C=C4c5cccc6[nH]c(Br)c(c56)C[C@H]4N(C)C3)(C(C)C)C(=O)N12` [Bromocriptine+ (GTP+)], for which the Ki was 9 nM and 16 nM.

For the compound `COc1cc2c3cc1Oc1cc(ccc1O)C[C@H]1c4c(cc(OC)c(O)c4Oc4ccc(cc4)C[C@@H]3N(C)CC2)CC[N+]1(C)C` [CAS_57-94-3], the inhibition constant Ki was > 60000 nM and 6900 nM.

For the compound `CC(CO)NC(=O)C1C=C2c3cccc4[nH]cc(c34)CC2N(C)C1` (stereo unspecified) [CAS_60-79-7], the Ki was 1400 nM and 1800 nM.

For the compound `C[C@@H](N)Cc1ccc(O)cc1` [CAS_103-86-6], the inhibition constant Ki is 5000 nM and 39000 nM.

Turning to `c1ccc2c(c1)OCC(CN1CCN(CC3COc4ccccc4O3)CC1)O2` (stereo unspecified) [CAS_7762-32-5], the Ki was 100 nM and 19 nM.

On to `CC(C)C1(NC(=O)C2CC3c4cccc5[nH]cc(c45)CC3N(C)C2)OC2(O)C3CCCN3C(=O)C(Cc3ccccc3)N2C1=O` (stereo unspecified) [Dihydroergocristine], for which the Ki is 10 nM and 2.4 nM.

In the case of `CC(C)[C@H]1C(=O)N2CCC[C@H]2[C@]2(O)O[C@](NC(=O)[C@@H]3C=C4c5cccc6[nH]cc(c56)C[C@H]4N(C)C3)(C(C)C)C(=O)N12` [ERGOCORNINE], the Ki was 11 nM and 10 nM.

As to `C#CCN(C)Cc1ccccc1` [N-benzyl-N-methylprop-2-yn-1-amine], the inhibitory constant (Ki) is 14000 nM and > 70000 nM.

With `NNc1nncc2ccccc12` [NSC_3637], the Ki is 7700 nM and 52000 nM.

As to `N=c1nc(N2CCCCC2)cc(N)n1O` [NSC_4201], the Ki is > 60000 nM and 29000 nM.

Regarding `OC(CCN1CCCCC1)(c1ccccc1)C1CCCCC1` (stereo unspecified) [NSC_5572], the inhibition constant (Ki) was 5000 nM and 18000 nM.

On to `ClCCN(Cc1ccccc1)Cc1ccccc1` [NSC_5820], for which the inhibition constant Ki is 270 nM and 83 nM.

On to `CC(C)C[C@H]1C(=O)N2CCC[C@H]2[C@]2(O)O[C@](NC(=O)[C@@H]3C[C@@H]4c5cccc6[nH]cc(c56)C[C@H]4N(C)C3)(C(C)C)C(=O)N12` [NSC_159729], for which the Ki was 7 nM and 2.4 nM.

Turning to `CC(C)C1C(=O)N2CCCC2C2(O)OC(NC(=O)C3CC4c5cccc6[nH]cc(c56)CC4N(C)C3)(C(C)C)C(=O)N12` (stereo unspecified) [NSC_168871], the Ki was 9 nM and 3.7 nM.

Regarding `CC(C)[C@@]1(NC(=O)[C@@H]2C=C3c4cccc5[nH]cc(c45)C[C@H]3N(C)C2)O[C@@]2(O)[C@@H]3CCCN3C(=O)[C@H](Cc3ccccc3)N2C1=O` [SMR000058447], the Ki was 18 nM and 6.3 nM.

For `CCCCCC(C)N` (stereo unspecified) [Tuaminoheptane], the Ki was 7100 nM and 68000 nM.

In the case of `NCCc1c[nH]c2ccc(O)cc12` [[3H]-5-HT], the inhibition constant (Ki) is 18000 nM and 23000 nM.

`C[C@H](N)Cc1ccccc1` [beta-aminopropylbenzene]: the Ki was 1600 nM and 10000 nM and 2200 nM and 12000 nM.
